Structures are written as SMILES. ≈ marks a conversion by molar mass, not a printed value. Where two headings read alike, the source gives them in different places.

Series [1] in a line: Solubility in water by HPLC. It counts as physicochemical. The settings on record: water, kinetic from dmso stock. Here is the method: The solubility of the compounds in water was assessed using HPLC analysis. Two 1.0 mg portions of the test compounds were dissolved in 10 μL of dimethyl sulfoxide; 1.0 mL of acetonitrile was added to one sample (standard), and 1.0 mL of water was added to the second sample (tested sample). Both vials were mixed in a shaker for 5 min, then centrifuged at 10,000 rpm for 5 min. The supernatants were collected and analyzed using Agilent 1290 Infinity (Agilent Technologies, Santa Clara, CA, USA) with a YMC-Triart C18 50 × 2.0 mm, 1.9 μm column. The concentration of the test compound in water was determined by comparing the peak areas of the standard (concentration 1.0 mg/mL) and the tested sample.

The test system of series [2] is MRSA clinical isolates. The series is described as follows: MIC by broth microdilution against multidrug-resistant MRSA clinical isolates. Particulars: for MIC Range Against 8 MRSA Strains: 8 multidrug-resistant MRSA clinical isolates, tested 0.125-1 mg/L; for MIC: Staphylococcus aureus, MRSA, read-out: MIC against 8 MRSA strains. It counts as cell-based, Staphylococcus aureus. The protocol: (§1) Clinical MRSA isolates with multidrug resistance were obtained from the collection of the Research Institute of Antimicrobial Chemotherapy, Smolensk State Medical Academy.
The MICs were determined using a broth microdilution method according to [42]. Briefly, serial dilutions of the tested compounds in 50 µL of Mueller Hinton broth (BD) were prepared in 96-well microplates. The antibiotics vancomycin and linezolid (Sigma-Aldrich, St. Louis, MO, USA) were used as a positive control. Bacterial suspensions of the tested MRSA strains were prepared in the Mueller Hinton broth (BD) with a concentration 1 × 10^6 CFU/mL, and then 50 µL aliquots were added to the prepared microplates. The final concentrations of the antibiotics in the wells were 1, 0.5, 0.25, and 0.125 mg/L, for the tested compounds, and 2 mg/L for vancomycin and linezolid. Negative control (lack of bacterial cells) and growth control (lack of compound) wells were included in all plates. The microplates were incubated at 37 °C for 18 h. The growth was assessed visually after incubation, and the MIC was assumed as the lowest compound concentration at which a noticeable growth of the microorganisms was inhibited (no visible growth). All experiments were conducted in triplicate.
On the technique in general: Broth dilution looks for growth in wells or tubes with falling amounts of substance.

In series [3] the test system is MRSA clinical isolates. The series is described as follows: Antibiotic susceptibility profile of MRSA clinical isolates (EUCAST breakpoints). It counts as cell-based, Staphylococcus aureus.
Text: as §1

Where [4] appears, read: read-out: Solubility in water, mass concentration.
[5] abbreviates: read-out: Solubility in water, molar concentration.

On to `CCOC(=O)c1c(/N=N/N(CC)CC)c2cccnc2n1C` [BX-SI019, Ethyl (E)-3-(3,3-diethyltriaz-1-en-1-yl)-1-methyl-1H-pyrrolo[2,3-b]pyridine-2-carboxylate], for which the solubility at 5 min in series [1] (setting [4]) was 88.2 µg/mL; in series [1] (setting [5]) it was 290 µM. Besides, the “MIC Range Against 8 MRSA Strains” value against MRSA clinical isolates [2] is above 1 µg/mL.

In the case of `CCOC(=O)c1c(/N=N/N(C)Cc2ccccc2)c2cccnc2n1C` [BX-SI020, Ethyl (E)-3-(3-benzyl-3-methyltriaz-1-en-1-yl)-1-methyl-1H-pyrrolo[2,3-b]pyridine-2-carboxylate], the solubility at 5 min came out at 7.53 µg/mL in series [1] (setting [4]) and 20 µM in series [1] (setting [5]). The “MIC Range Against 8 MRSA Strains” value in the series on MRSA clinical isolates [2] is above 1 µg/mL.

For `CCOC(=O)c1c(/N=N/N2CCN(Cc3ccccc3)CC2)c2cccnc2n1C` [BX-SI021, Ethyl (E)-3-((4-benzylpiperazin-1-yl)diazenyl)-1-methyl-1H-pyrrolo[2,3-b]pyridine-2-carboxylate], the solubility at 5 min in series [1] (setting [4]) stood at 12.5 µg/mL; in series [1] (setting [5]), 10 µM. The “MIC Range Against 8 MRSA Strains” value against MRSA clinical isolates [2] is above 1 µg/mL.

Regarding `CCOC(=O)c1c(/N=N/N(C)CCN(C)C)c2cccnc2n1C` [BX-SI027, Ethyl (E)-3-(3-(2-(dimethylamino)ethyl)-3-methyltriaz-1-en-1-yl)-1-methyl-1H-pyrrolo[2,3-b]pyridine-2-carboxylate], the solubility at 5 min came to 927 µg/mL in series [1] (setting [4]) and 2780 µM in series [1] (setting [5]). In the series with MRSA clinical isolates [2], the “MIC Range Against 8 MRSA Strains” value was above 1 µg/mL.

With `CCOC(=O)c1[nH]c2cc(F)ccc2c1/N=N/N(CC)CC` [BX-SI036, Ethyl (E)-3-(3,3-diethyltriaz-1-en-1-yl)-6-fluoro-1H-indole-2-carboxylate], the solubility at 5 min was 10 µg/mL in series [1] (setting [4]) and 30 µM in series [1] (setting [5]). Also, the “MIC Range Against 8 MRSA Strains” value against MRSA clinical isolates [2] is above 1 µg/mL.

For `CCOC(=O)c1[nH]c2cc(F)ccc2c1/N=N/N(C)Cc1ccccc1` [BX-SI037, Ethyl (E)-3-(3-benzyl-3-methyltriaz-1-en-1-yl)-6-fluoro-1H-indole-2-carboxylate], the figures for the solubility at 5 min in series [1] (setting [4]) and in series [1] (setting [5]) were 18.4 µg/mL and 50 µM, respectively. Besides, the “MIC Range Against 8 MRSA Strains” value in the series on MRSA clinical isolates [2] came out at 1 µg/mL (≈ 2.82 µM).

As for `CCOC(=O)c1[nH]c2cc(F)ccc2c1/N=N/N1CCN(Cc2ccccc2)CC1` [BX-SI038, Ethyl (E)-3-((4-benzylpiperazin-1-yl)diazenyl)-6-fluoro-1H-indole-2-carboxylate], the solubility at 5 min was 0.383 µg/mL in series [1] (setting [4]) and 1 µM in series [1] (setting [5]). Also, the “MIC Range Against 8 MRSA Strains” value in the series on MRSA clinical isolates [2] is above 1 µg/mL.

Turning to `CC(=O)NC[C@H]1CN(c2ccc(N3CCOCC3)c(F)c2)C(=O)O1` [Linezolid, linezolid], the Drug sensibility profile entry in the series with MRSA clinical isolates [3] (MRSA strain 1), in the series with MRSA clinical isolates [3] (MRSA strain 2), in the series with MRSA clinical isolates [3] (MRSA strain 3), in the series on MRSA clinical isolates [3] (MRSA strain 4), in the series on MRSA clinical isolates [3] (MRSA strain 5) and in the series with MRSA clinical isolates [3] (MRSA strain 6) was “S” each time. For the same compound, the Drug sensibility profile result in the series with MRSA clinical isolates [3] (MRSA strain 7), with MRSA clinical isolates [3] (MRSA strain 8), with MRSA clinical isolates [3] (MRSA strain 9), in the series with MRSA clinical isolates [3] (MRSA strain 10), with MRSA clinical isolates [3] (MRSA strain 12) and with MRSA clinical isolates [3] (MRSA strain 13) was “S” throughout. Moreover, the Drug sensibility profile entry in the series on MRSA clinical isolates [3] (MRSA strain 14), in the series on MRSA clinical isolates [3] (MRSA strain 15), in the series on MRSA clinical isolates [3] (MRSA strain 16), with MRSA clinical isolates [3] (MRSA strain 17), in the series with MRSA clinical isolates [3] (MRSA strain 18) and with MRSA clinical isolates [3] (MRSA strain 21) was “S” each time. The Drug sensibility profile entry in the series on MRSA clinical isolates [3] (MRSA strain 23), in the series on MRSA clinical isolates [3] (MRSA strain 24), with MRSA clinical isolates [3] (MRSA strain 25), in the series on MRSA clinical isolates [3] (MRSA strain 26), in the series on MRSA clinical isolates [3] (MRSA strain 27) and in the series on MRSA clinical isolates [3] (MRSA strain 28) was “S” each time. Further, the Drug sensibility profile entry in the series with MRSA clinical isolates [3] (MRSA strain 29), in the series on MRSA clinical isolates [3] (MRSA strain 30), with MRSA clinical isolates [3] (MRSA strain 31), in the series with MRSA clinical isolates [3] (MRSA strain 34), in the series on MRSA clinical isolates [3] (MRSA strain 35) and in the series on MRSA clinical isolates [3] (MRSA strain 36) was “S” throughout. The Drug sensibility profile result with MRSA clinical isolates [3] (MRSA strain 40), in the series on MRSA clinical isolates [3] (MRSA strain 41), in the series on MRSA clinical isolates [3] (MRSA strain 42), in the series with MRSA clinical isolates [3] (MRSA strain 43), with MRSA clinical isolates [3] (MRSA strain 44) and with MRSA clinical isolates [3] (MRSA strain 45) was “S” in each case. In addition, the Drug sensibility profile result with MRSA clinical isolates [3] (MRSA strain 46), with MRSA clinical isolates [3] (MRSA strain 48), with MRSA clinical isolates [3] (MRSA strain 49), with MRSA clinical isolates [3] (MRSA strain 50) and with MRSA clinical isolates [3] (MRSA strain 51) was “S” each time. Also, the MIC was 2 µg/mL (≈ 5.93 µM) in the series on MRSA clinical isolates [2] (Figure 6, MRSA strain 2); 2 µg/mL (≈ 5.93 µM) in the series on MRSA clinical isolates [2] (Figure 6, MRSA strain 7); 2 µg/mL (≈ 5.93 µM) in the series with MRSA clinical isolates [2] (Figure 6, MRSA strain 8); 2 µg/mL (≈ 5.93 µM) in the series on MRSA clinical isolates [2] (Figure 6, MRSA strain 9); 2 µg/mL (≈ 5.93 µM) with MRSA clinical isolates [2] (Figure 6, MRSA strain 13); 2 µg/mL (≈ 5.93 µM) in the series on MRSA clinical isolates [2] (Figure 6, MRSA strain 21). Besides, the MIC came out at 2 µg/mL (≈ 5.93 µM) in the series with MRSA clinical isolates [2] (Figure 6, MRSA strain 48) and 2 µg/mL (≈ 5.93 µM) with MRSA clinical isolates [2] (Figure 6, MRSA strain 50).

In the case of `CN[C@H](CC(C)C)C(=O)N[C@H]1C(=O)N[C@@H](CC(N)=O)C(=O)N[C@H]2C(=O)N[C@H]3C(=O)N[C@H](C(=O)N[C@H](C(=O)O)c4cc(O)cc(O)c4-c4cc3ccc4O)[C@H](O)c3ccc(c(Cl)c3)Oc3cc2cc(c3O[C@@H]2O[C@H](CO)[C@@H](O)[C@H](O)[C@H]2O[C@H]2C[C@](C)(N)[C@H](O)[C@H](C)O2)Oc2ccc(cc2Cl)[C@H]1O` [Vancomycin, vancomycin], the Drug sensibility profile entry with MRSA clinical isolates [3] (MRSA strain 1), in the series on MRSA clinical isolates [3] (MRSA strain 2), in the series with MRSA clinical isolates [3] (MRSA strain 3), in the series with MRSA clinical isolates [3] (MRSA strain 4), in the series with MRSA clinical isolates [3] (MRSA strain 5) and with MRSA clinical isolates [3] (MRSA strain 6) was “S” in each case. For the same compound, the Drug sensibility profile result in the series on MRSA clinical isolates [3] (MRSA strain 7), in the series on MRSA clinical isolates [3] (MRSA strain 8), with MRSA clinical isolates [3] (MRSA strain 9), in the series with MRSA clinical isolates [3] (MRSA strain 10), in the series on MRSA clinical isolates [3] (MRSA strain 12) and with MRSA clinical isolates [3] (MRSA strain 13) was “S” in each case. The Drug sensibility profile entry in the series on MRSA clinical isolates [3] (MRSA strain 14), in the series with MRSA clinical isolates [3] (MRSA strain 15), with MRSA clinical isolates [3] (MRSA strain 16), in the series on MRSA clinical isolates [3] (MRSA strain 17), in the series on MRSA clinical isolates [3] (MRSA strain 18) and in the series with MRSA clinical isolates [3] (MRSA strain 21) was “S” throughout. Moreover, the Drug sensibility profile result in the series on MRSA clinical isolates [3] (MRSA strain 23), in the series with MRSA clinical isolates [3] (MRSA strain 24), in the series with MRSA clinical isolates [3] (MRSA strain 25), with MRSA clinical isolates [3] (MRSA strain 26), with MRSA clinical isolates [3] (MRSA strain 27) and in the series on MRSA clinical isolates [3] (MRSA strain 28) was “S” each time. The Drug sensibility profile result with MRSA clinical isolates [3] (MRSA strain 29), in the series with MRSA clinical isolates [3] (MRSA strain 30), in the series on MRSA clinical isolates [3] (MRSA strain 31), in the series with MRSA clinical isolates [3] (MRSA strain 34), with MRSA clinical isolates [3] (MRSA strain 35) and with MRSA clinical isolates [3] (MRSA strain 36) was “S” in each case. The Drug sensibility profile entry with MRSA clinical isolates [3] (MRSA strain 40), in the series on MRSA clinical isolates [3] (MRSA strain 41), with MRSA clinical isolates [3] (MRSA strain 42), in the series on MRSA clinical isolates [3] (MRSA strain 43), with MRSA clinical isolates [3] (MRSA strain 44) and with MRSA clinical isolates [3] (MRSA strain 45) was “S” throughout. The Drug sensibility profile result with MRSA clinical isolates [3] (MRSA strain 46), with MRSA clinical isolates [3] (MRSA strain 48), in the series with MRSA clinical isolates [3] (MRSA strain 49), in the series on MRSA clinical isolates [3] (MRSA strain 50) and in the series on MRSA clinical isolates [3] (MRSA strain 51) was “S” throughout. In addition, the MIC in the series with MRSA clinical isolates [2] is 2 µg/mL (≈ 1.38 µM).

For orientation: MIC means the lowest concentration that inhibits growth of the organism.

(Values after PMC11899342, “Novel Triazeneindole Antibiotics: Synthesis and Hit-to-Lead Optimization” (International Journal of Molecular Sciences, 2025).)
